Experimental data taken from PMC12298827, “Subchronic Toxicities of Four Per- and Polyfluoroalkyl Substances (PFASs) by Oral Exposure in Sprague–Dawley Rats” (Toxics, 2025).

System: male and female Sprague–Dawley rats
Assay: 90-day subchronic oral gavage toxicity study
Format: in vivo, rat
Experimental: Subchronic (90-day) studies were performed in accordance with current U.S. EPA’s Toxic Substances Control Act Good Laboratory Practice (GLP) Standards, with the following two general exceptions to the GLP guidelines: Analysis of the dose formulations was conducted according to RTI-approved Standard Operating Procedures, and corn oil (the vehicle) was not characterized (certificate of analysis from the vendor is available in the appendices to the final reports). Male and female Sprague–Dawley rats (five dose levels plus a control, n = 10/sex/dose group, corn oil vehicle dose volume of 3 mL/kg; oral gavage) were used in these studies, and the rats were euthanized on SD 91. The dose levels for PFHI were 0, 12.5, 25, 50, 100, and 200 mg/kg-day. The dose levels for MHFPK were 0, 18.8, 37.5, 75, 150, and 300 mg/kg-day. The dose levels for PFNAC were 0, 0.1, 0.3, 1.0, 3.0, and 10 mg/kg-day for male rats and 0, 0.3, 1.0, 3.0, 10, and 30 mg/kg-day for female rats. For CTFPA, the dose levels were 0, 1.9, 3.8. 7.5, 15, and 30 mg/kg-day for male rats and 0, 6.3, 12.5, 25, 50, and 100 mg/kg-day for female rats. For each PFAS, three batches of dosing solution were prepared. The time between the batch preparation of the dosing solutions ranged between 29 and 39 days. Blood samples were collected from all the rats at termination for serum chemistry, hematology, coagulation, and the analysis of the parent PFAS chemical in the plasma. In vivo data collection and further detail on the endpoints examined postmortem are described below.
The rats were observed twice daily for morbidity and mortality throughout the study period. At least once prior to randomization to test groups and weekly thereafter, the rats were physically examined, and bodyweights were obtained. Feed consumption was quantified weekly starting on SD 1.
Neurotoxicity was evaluated using the functional observational battery (FOB) and measuring locomotor activity (LMA) 2–4 h post dosing on SDs 78–80 and 80–84, respectively. For both the 14- and 90-day studies, an ophthalmologic examination was conducted prior to randomization and near the end of the study, using indirect ophthalmoscopy and slit–lamp biomicroscopy (as needed) after the administration of a mydriatic solution.
Hematology, biochemistry, and coagulation endpoints were measured at the termination of the study. A Siemens Advia 2120i hematology analyzer (Siemens Healthineers, Erlangen, Germany) was used to measure (or calculate) the parameters related to the complete blood count, leukocyte differential count, and reticulocyte count. The hematology parameters are listed and described in Table 2. The prothrombin time […] and activated partial thromboplastin time (APTT) were measured using an Instrumentation Laboratory (Bedford, MA, USA) ACL Elite Pro coagulation analyzer (laser–nephelometric centrifugal method).
At necropsy, the rats were visually examined for external abnormalities and organ weights (absolute and relative to the BW and brain weight), which were recorded (paired organs weighed together). The tissues were preserved in 10% neutral buffered formalin (NBF), except for the ocular tissues, testes, and epididymides, which were preserved in modified Davidson’s fixative and later transferred to 10% NBF. Bone marrow smears were prepared from the femurs, and the slides were air-dried, fixed in methanol, stained, and stored at room temperature for possible future evaluation. The preserved tissues were embedded in paraffin, sectioned, stained with hematoxylin and eosin, and examined by a board-certified veterinary pathologist.
Statistical analysis was performed using Provantis™ Version 10 or greater (Instem LSS, Limited; Stone, Staffordshire, UK). Differences among the treatment groups compared to the control were evaluated using one-way analysis of variance (ANOVA) if the underlying assumptions of a normal distribution (Shapiro–Wilk test) and the homogeneity of the variance (Levene’s test) were satisfied. […]

Structure (SMILES): FC(F)(F)C(F)(F)C(F)(F)C(F)(F)CCI [PFHI, 1H,1H,2H,2H-Perfluorohexyl iodide]
- Liver/Brain Weight (female, 200 mg/kg-day): 481%
- MPV (female, 200 mg/kg-day): 7.68 ± 0.44 fL
- PT (female, 200 mg/kg-day): 13.98 s
- Total BW change (female, 200 mg/kg-day): 108.57 g
- Total Food Consumed (female, 200 mg/kg-day): 1566 g
- BMD10, absolute kidney weight increase (male): 122 mg/kg-day
- BMD10, relative kidney weight increase (male): 69.7 mg/kg-day
- BMDL, absolute kidney weight increase (male): 83.8 mg/kg-day
- BMDL, relative kidney weight increase (male): 56.6 mg/kg-day
- LOEL, absolute kidney weight increase (male): 200 mg/kg-day
- LOEL, absolute liver weight increase (male): 100 mg/kg-day
- LOEL, relative kidney weight increase (male): 100 mg/kg-day
- LOEL, relative liver weight increase (male): 25 mg/kg-day
- NOEL, absolute kidney weight increase (male): 100 mg/kg-day
- NOEL, absolute liver weight increase (male): 50 mg/kg-day
- NOEL, relative kidney weight increase (male): 50 mg/kg-day
- NOEL, relative liver weight increase (male): 12.5 mg/kg-day
- % BW Gain (male, 12.5 mg/kg-day): 114.45%
- % Diff, % BW Gain (male, 12.5 mg/kg-day): 0.87%
- % Diff, Total BW change (male, 12.5 mg/kg-day): -1.78%
- % Diff, Total Food Consumed (male, 12.5 mg/kg-day): -6.69%
- A/G (male, 12.5 mg/kg-day): 0.91±0.04 ratio
- ALB (male, 12.5 mg/kg-day): 3.42 ± 0.25 g/dL
- ALPi (male, 12.5 mg/kg-day): 102.9±14.1 U/L
- APTT (male, 12.5 mg/kg-day): 23.37 s
- BUN (male, 12.5 mg/kg-day): 14.8 ± 2.0 mg/dL
- CHOL (male, 12.5 mg/kg-day): 87.5 ± 9.2 mg/dL
- GLOB (male, 12.5 mg/kg-day): 3.77 ± 0.18 g/dL
- GLUC (male, 12.5 mg/kg-day): 199.1 ± 29.5 mg/dL
- HCT (male, 12.5 mg/kg-day): 51.12±1.63%
- HGB (male, 12.5 mg/kg-day): 15.92 ± 0.40 g/dL
- Kidney Weight (male, 12.5 mg/kg-day): 3.04 g
- Kidney/Body Weight (male, 12.5 mg/kg-day): 0.51%
- Kidney/Brain Weight (male, 12.5 mg/kg-day): 140%
- Liver Weight (male, 12.5 mg/kg-day): 15.35 g
- Liver/Body Weight (male, 12.5 mg/kg-day): 2.59%
- Liver/Brain Weight (male, 12.5 mg/kg-day): 706%
- MPV (male, 12.5 mg/kg-day): 7.20 ± 0.26 fL
- PT (male, 12.5 mg/kg-day): 14.91 s
- Total BW change (male, 12.5 mg/kg-day): 319.83 g
- Total Food Consumed (male, 12.5 mg/kg-day): 2217 g
- % BW Gain (male, 25 mg/kg-day): 112.88%
- % Diff, % BW Gain (male, 25 mg/kg-day): -0.52%
- % Diff, Total BW change (male, 25 mg/kg-day): -1.33%
- % Diff, Total Food Consumed (male, 25 mg/kg-day): -4.60%
- A/G (male, 25 mg/kg-day): 0.88±0.10 ratio
- ALB (male, 25 mg/kg-day): 3.35 ± 0.14 g/dL
- ALPi (male, 25 mg/kg-day): 112.3±29.5 U/L
- APTT (male, 25 mg/kg-day): 29.06 s
- BUN (male, 25 mg/kg-day): 15.3 ± 2.1 mg/dL
- CHOL (male, 25 mg/kg-day): 101.5 ± 15.8 mg/dL
- GLOB (male, 25 mg/kg-day): 3.84 ± 0.36 g/dL
- GLUC (male, 25 mg/kg-day): 204.5 ± 34.6 mg/dL
- HCT (male, 25 mg/kg-day): 50.59±1.92%
- HGB (male, 25 mg/kg-day): 15.67 ± 0.55 g/dL
- Kidney Weight (male, 25 mg/kg-day): 3.20 g
- Kidney/Body Weight (male, 25 mg/kg-day): 0.54%
- Kidney/Brain Weight (male, 25 mg/kg-day): 147%
- Liver Weight (male, 25 mg/kg-day): 16.98 g
- Liver/Body Weight (male, 25 mg/kg-day): 2.85%
- Liver/Brain Weight (male, 25 mg/kg-day): 780%
- MPV (male, 25 mg/kg-day): 7.13 ± 0.21 fL
- PT (male, 25 mg/kg-day): 14.69 s
- Total BW change (male, 25 mg/kg-day): 321.29 g
- Total Food Consumed (male, 25 mg/kg-day): 2266 g
- % BW Gain (male, 50 mg/kg-day): 108.23%
- % Diff, % BW Gain (male, 50 mg/kg-day): -4.61%
- % Diff, Total BW change (male, 50 mg/kg-day): -5.67%
- % Diff, Total Food Consumed (male, 50 mg/kg-day): -6.15%
- A/G (male, 50 mg/kg-day): 0.91±0.04 ratio
- ALB (male, 50 mg/kg-day): 3.41 ± 0.12 g/dL
- ALPi (male, 50 mg/kg-day): 103.3±31.6 U/L
- APTT (male, 50 mg/kg-day): 20.03 s
- BUN (male, 50 mg/kg-day): 15.4 ± 1.8 mg/dL
- CHOL (male, 50 mg/kg-day): 100.2 ± 18.8 mg/dL
- GLOB (male, 50 mg/kg-day): 3.74 ± 0.13 g/dL
- GLUC (male, 50 mg/kg-day): 196.8 ± 40.7 mg/dL
- HCT (male, 50 mg/kg-day): 49.78±1.69%
- HGB (male, 50 mg/kg-day): 15.53 ± 0.59 g/dL
- Kidney Weight (male, 50 mg/kg-day): 3.25 g
- Kidney/Body Weight (male, 50 mg/kg-day): 0.56%
- Kidney/Brain Weight (male, 50 mg/kg-day): 143.1%
- Liver Weight (male, 50 mg/kg-day): 17.05 g
- Liver/Body Weight (male, 50 mg/kg-day): 2.92%
- Liver/Brain Weight (male, 50 mg/kg-day): 754%
- MPV (male, 50 mg/kg-day): 7.30 ± 0.36 fL
- PT (male, 50 mg/kg-day): 15.14 s
- Total BW change (male, 50 mg/kg-day): 307.16 g
- Total Food Consumed (male, 50 mg/kg-day): 2229 g
- % BW Gain (male, 100 mg/kg-day): 106.43%
- % Diff, % BW Gain (male, 100 mg/kg-day): -6.20%
- % Diff, Total BW change (male, 100 mg/kg-day): -9.44%
- % Diff, Total Food Consumed (male, 100 mg/kg-day): -5.67%
- A/G (male, 100 mg/kg-day): 0.87±0.20 ratio
- ALB (male, 100 mg/kg-day): 3.34 ± 0.53 g/dL
- ALPi (male, 100 mg/kg-day): 103.2±19.1 U/L
- APTT (male, 100 mg/kg-day): 26.73 s
- BUN (male, 100 mg/kg-day): 15.7 ± 3.2 mg/dL
- CHOL (male, 100 mg/kg-day): 112.4 ± 25.0 mg/dL
- GLOB (male, 100 mg/kg-day): 3.97 ± 0.63 g/dL
- GLUC (male, 100 mg/kg-day): 171.8 ± 39.0 mg/dL
- HCT (male, 100 mg/kg-day): 50.60±2.40%
- HGB (male, 100 mg/kg-day): 15.71 ± 0.74 g/dL
- Kidney Weight (male, 100 mg/kg-day): 3.38 g
- Kidney/Body Weight (male, 100 mg/kg-day): 0.60%
- Kidney/Brain Weight (male, 100 mg/kg-day): 156%
- Liver Weight (male, 100 mg/kg-day): 18.32 g
- Liver/Body Weight (male, 100 mg/kg-day): 3.24%
- Liver/Brain Weight (male, 100 mg/kg-day): 843%
- MPV (male, 100 mg/kg-day): 7.22 ± 0.38 fL
- PT (male, 100 mg/kg-day): 15.16 s
- Total BW change (male, 100 mg/kg-day): 294.89 g
- Total Food Consumed (male, 100 mg/kg-day): 2241 g
- % BW Gain (male, 200 mg/kg-day): 100.73%
- % Diff, % BW Gain (male, 200 mg/kg-day): -11.23%
- % Diff, Total BW change (male, 200 mg/kg-day): -14.29%
- % Diff, Total Food Consumed (male, 200 mg/kg-day): -8.27%
- A/G (male, 200 mg/kg-day): 0.91±0.04 ratio
- ALB (male, 200 mg/kg-day): 3.55 ± 0.21 g/dL
- ALPi (male, 200 mg/kg-day): 117.5±29.4 U/L
- APTT (male, 200 mg/kg-day): 25.80 s
- BUN (male, 200 mg/kg-day): 16.5 ± 2.0 mg/dL
- CHOL (male, 200 mg/kg-day): 149.1 ± 27.7 mg/dL
- GLOB (male, 200 mg/kg-day): 3.92 ± 0.23 g/dL
- GLUC (male, 200 mg/kg-day): 163.2 ± 18.4 mg/dL
- HCT (male, 200 mg/kg-day): 47.32±1.57%
- HGB (male, 200 mg/kg-day): 14.88 ± 0.44 g/dL
- Kidney Weight (male, 200 mg/kg-day): 3.60 g
- Kidney/Body Weight (male, 200 mg/kg-day): 0.66%
- Kidney/Brain Weight (male, 200 mg/kg-day): 168%
- Liver Weight (male, 200 mg/kg-day): 20.17 g
- Liver/Body Weight (male, 200 mg/kg-day): 3.70%
- Liver/Brain Weight (male, 200 mg/kg-day): 944%
- MPV (male, 200 mg/kg-day): 7.33 ± 0.31 fL
- PT (male, 200 mg/kg-day): 15.32 s
- Total BW change (male, 200 mg/kg-day): 279.08 g
- Total Food Consumed (male, 200 mg/kg-day): 2179 g
